# According to patent publication US11858993B2, “Multi-specific antibodies with affinity for human A33 antigen and DOTA metal complex and uses thereof” (Memorial Sloan Kettering Cancer Center, priority 2015, dated 2024):
# pKd: −log10 of the molar value. Values joined by “and” are separate entries in the source; they are usually repeats but may differ in a detail not shown here. Equal entries are not always repeated. “Also recorded” adds a separate entry of the source. Where two headings read alike, the source gives them in different places.
# Assays:
# [1] = Stability by SE-HPLC and Biacore after freeze and thaw cycles; format: physicochemical; details: after multiple freeze and thaw cycles
# [2] = system: kidney, bone marrow, liver, and spleen; assay: Toxicity: weight, appearance and anatomic pathology after PRIT; format: in vivo; details: PRIT-treated SW1222 mice, dual-cycle; out to 140 days where stated
# Procedure: For dual-cycle PRIT given at 10 and 17 days post tumor inoculation, there is marked response at all dose levels with complete responses observed in a dose dependent manner. […] Toxicity was determined by monitoring weight and overall appearance at least three times per week, as well as histopathologic assessment of liver, kidney, spleen and bone marrow by MSKCC Lab of Comparative Pathology.
# For 3/3 mice, the kidney, bone marrow, and liver were normal.
# BSA-(Y)-DOTA-Bn = assay: Biacore T100 surface plasmon resonance, binding to BSA-(Y)-DOTA-Bn
# Procedure: (§1) Binding affinity was measured by Biacore T100.
# (§2) Biacore T100 Biosensor, CM5 sensor chip, and related reagents were purchased from GE Healthcare. Recombinant human A33 protein was purchased from Novoprotein. A BSA-(Y)-DOTA-Bn conjugate was prepared as described (Cheal et al., supra). A33 and DOTA antigens were immobilized using the Amino Coupling kit (GE Healthcare). Purified bispecific antibodies and control antibodies were analyzed, and data were fit to a bivalent analyte model using the Biacore T100 evaluation software as described (Cheal et al., supra).
# [3] = system: A33-positive SW1222 xenografts; details: for Complete Response / Cures at 40 d post-treatment: Single-cycle; for tumor volume: day 23 post tumor-inoculation, average±SEM
# Text: All animal experiments were approved by the Institutional Animal Care and Use Committee of Memorial Sloan Kettering Cancer Center and institutional guidelines for the proper and humane use of animals in research were followed. Athymic nu/nu female mice (6-8 weeks old; Harlan Sprague Dawley) were allowed to acclimate in the vivarium for at least one week. […] All reagents were given intravenously (i.v.) via the lateral tail vein. […] In addition, huA33-C825 was trace radiolabeled with I-131 to estimate tumor uptake during PRIT. […] (Lindmo, T. et al., 1990, J. Immunol. Meth. 126(2):183-189). For PRIT with non-specific IgG-C825, an equivalent mg dose of a GD2-targeted bispecific antibody (hu3F8-C825) was used in place of huA33-C825. For ex vivo biodistribution analysis, mice were euthanized by CO2(g) asphyxiation, and tumor and selected organs were harvested, rinsed with water and allowed to air-dry, weighed and radioassayed by gamma scintillation counting (Perkin Elmer Wallac Wizard 3″). Count rates were background and decay corrected, converted to activities using a system calibration factor, normalized to the administered activity, and expressed as percent injected dose per gram (% ID/g). Differences in ^177Lu-activity concentration in tumor and various tissues were analyzed by Student's unpaired t test when appropriate.
# [4] = molecular target: T1, Recombinant human A33 protein (Homo sapiens, UniProt Q99795); assay: Biacore T100 surface plasmon resonance, binding to human A33 antigen; details: Biacore T100, bivalent analyte model
# T1 construct: purchased Novoprotein
# T1 sequence (Q99795 22-319): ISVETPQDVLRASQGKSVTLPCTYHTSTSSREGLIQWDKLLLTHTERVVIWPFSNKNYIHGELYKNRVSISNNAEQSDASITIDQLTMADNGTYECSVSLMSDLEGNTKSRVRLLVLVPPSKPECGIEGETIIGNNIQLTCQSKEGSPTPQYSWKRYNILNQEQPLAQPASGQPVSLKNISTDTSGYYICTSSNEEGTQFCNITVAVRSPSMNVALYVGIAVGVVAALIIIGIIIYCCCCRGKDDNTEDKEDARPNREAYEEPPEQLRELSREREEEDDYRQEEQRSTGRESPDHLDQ
# Procedure: as §1, §2
# SW1222 tumor = assay: PRIT optimization biodistribution (huA33-C825 dose, clearing agent dose), 24 h p.i. of ^177Lu-DOTA-Bn; details: for tumor-to-organ ratio, kidney: 24 h p.i.
# Procedure: Next, additional biodistribution experiments were performed to optimize the CA dose during PRIT with 0.25 mg (1.19 nmol) as the huA33-C825 dose. Groups of tumor-bearing mice (n=3 to 4 per group) with were injected with huA33-C825, followed 24 h later with either: saline (i.e. vehicle), 2.4% (w/w, with respect to 0.25 mg huA33-C825 dose), 5% (w/w), 10% (w/w), or 25% (w/w) CA doses (0-62.5 μg/mouse). After an additional 4 h, mice were injected with 5.6 MBq of ^177Lu-DOTA-Bn, and sacrificed 24 h later for biodistribution analysis.
# Next, ^177Lu-DOTA-Bn dose titration studies were performed using the optimized PRIT doses for huA33-C825 and CA. For ^177Lu-DOTA-Bn dose titration studies, the ^177Lu-activity biodistribution data for tumor and critical select tissues (blood, liver, spleen, and kidneys) was compared between ^177Lu-DOTA-Bn dose groups as both % ID/g and absolute uptake (kBq/g; see FIGS. 4A, 4B). Finally, a single-time point biodistribution experiment at 24 h p.i. of ^131I-trace labeled huA33-C825 (0.39-0.40 MBq with cold huA33-C825 added to 1.19 nmol) was performed in SW1222-tumor bearing mice to estimate the absolute antibody uptake of huA33-C825 in tumor (as pmol/g) during PRIT.
# All animal experiments were approved by the Institutional Animal Care and Use Committee of Memorial Sloan Kettering Cancer Center and institutional guidelines for the proper and humane use of animals in research were followed. Athymic nu/nu female mice (6-8 weeks old; Harlan Sprague Dawley) were allowed to acclimate in the vivarium for at least one week. […] All reagents were given intravenously (i.v.) via the lateral tail vein. […] In addition, huA33-C825 was trace radiolabeled with I-131 to estimate tumor uptake during PRIT.
# [5] = system: A33-positive SW1222 xenografts; assay: Dual-cycle PRIT therapy study; details: for Complete Response / Cures at 40 d post-treatment / absorbed radiation dose, Blood / absorbed radiation dose, Kidney / absorbed radiation dose, Tumor: Dual-cycle
# Text: In a second therapy study, dual-cycle huA33-C825 PRIT treatment was investigated.
# The following definitions were used to describe treatment response: a complete response (CR) is defined as tumor shrinkage to <100 mm^3. […] Excessive tumor burden is defined as >2000 mm^3.
# [6] = Biacore T100, bivalent analyte model
# [7] = single-cycle huA33-C825 PRIT+either 11.1 MBq or 33.3 MBq ^177Lu-DOTA-Bn
# [8] = dual-cycle PRIT, 66.6 or 111 MBq ^177Lu-DOTA-Bn pooled
# [9] = two cycles of PRIT+55.5 (total 111.0 MBq)
substance,measurement,setting,value
huA33-C825: bispecific antibody: humanized A33 IgG1 with murine C825 anti-DOTA-Bn scFv linked to the light chain C-terminus,stability by SE-HPLC and Biacore,[1],remained stable
same,"toxicity (clinical, histologic)",[2],no clinical or histologic evidence of radiation induced toxicities; also recorded: no toxicity was observed; also recorded: no detectable toxicity
same,koff,BSA-(Y)-DOTA-Bn; [6],0.00022 s⁻¹
same,kon,BSA-(Y)-DOTA-Bn; [6],19000 M⁻¹ s⁻¹
same,pKd,BSA-(Y)-DOTA-Bn; FIG. 2B,7.94
same,Complete Response,[3]; + 11.1 MBq,0/8
same,Cures at 40 d post-treatment,[3]; + 11.1 MBq,0/8
same,Complete Response,[3]; + 33.3 MBq,0/8
same,Cures at 40 d post-treatment,[3]; + 33.3 MBq,0/8
same,tumor volume,[3]; 11.1 MBq ^177Lu-DOTA-Bn,694±138 mm^3
same,tumor volume,[3]; 33.3 MBq ^177Lu-DOTA-Bn,495±76 mm^3
same,effective dose range (tumor),"[3]; mouse, in vivo",1800-2200 cGy
same,complete response (CR),[3]; [7],no CR
same,"slight growth delay of the tumors, up to (days following treatment)",[3]; [7],~15 days
same,koff,[4],0.00581 s⁻¹
same,kon,[4],91500 M⁻¹ s⁻¹
same,"tumor-to-organ ratio, kidney",SW1222 tumor; 65 μg CA dose level (25% (w/w)),18.4±13.4
same,reduction in ^177Lu-DOTA-Bn tumor uptake compared with PRIT with saline,"SW1222 tumor; mouse, in vivo",~50%
same,"tumor-to-organ ratio, blood","SW1222 tumor; mouse, in vivo",2.2±0.4
same,"tumor-to-organ ratio, muscle","SW1222 tumor; mouse, in vivo",23.2±3.8
same,"tumor-to-organ ratio, kidney",SW1222 tumor; saline (no CA),4.9±0.6
same,Complete Response,"[5]; + 11.1 MBq (×2), 22.2 MBq",2/5
same,Cures at 40 d post-treatment,"[5]; + 11.1 MBq (×2), 22.2 MBq",1/5
same,"absorbed radiation dose, Blood","[5]; + 11.1 MBq (×2), 22.2 MBq",0.2 Gy
same,"absorbed radiation dose, Kidney","[5]; + 11.1 MBq (×2), 22.2 MBq",1.2 Gy
same,"absorbed radiation dose, Tumor","[5]; + 11.1 MBq (×2), 22.2 MBq",14.6 Gy
same,Complete Response,"[5]; + 33.3 MBq (×2), 66.6 MBq",5/5
same,Cures at 40 d post-treatment,"[5]; + 33.3 MBq (×2), 66.6 MBq",2/5
same,"absorbed radiation dose, Blood","[5]; + 33.3 MBq (×2), 66.6 MBq",0.6 Gy
same,"absorbed radiation dose, Kidney","[5]; + 33.3 MBq (×2), 66.6 MBq",3.5 Gy
same,"absorbed radiation dose, Tumor","[5]; + 33.3 MBq (×2), 66.6 MBq",43.8 Gy
same,Complete Response,"[5]; + 55.5 MBq (×2), 111.0 MBq",4/4
same,Cures at 40 d post-treatment,"[5]; + 55.5 MBq (×2), 111.0 MBq",2/4
same,"absorbed radiation dose, Blood","[5]; + 55.5 MBq (×2), 111.0 MBq",1.0 Gy
same,"absorbed radiation dose, Kidney","[5]; + 55.5 MBq (×2), 111.0 MBq",5.9 Gy
same,"absorbed radiation dose, Tumor","[5]; + 55.5 MBq (×2), 111.0 MBq",73.0 Gy
same,alive without recurrence at more than 140 d,[5]; [8],2/9
same,complete responses,[5]; [8],9/9
same,"complete response, share of test subjects",[5]; dual-cycle dosing,approximately 80%
same,time to reach 500 mm^3 in recurrent tumors (individual mice),[5]; [9],34 days and 45 days and 42 days
same,tumor size at time of sacrifice (single mouse),[5]; [9],44 mm^3
